In test [1] the target is NanoLuc VHL fusion protein (Homo sapiens (Human), UniProt P40337). Kind of test: VHL HEK-293 BRET Assay (NanoBRET Target Engagement). The class given is cell-based. The following applies: geometric mean where more than one measurement. The procedure, abridged: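 HEK293 cells stably expressing NanoLuc-VHL, 2 h with compound titration and 1 uM final tracer, then Nano-Glo substrate plus extracellular NanoLuc inhibitor. BRET ratio 610/460 nm, background-corrected with no-tracer wells, normalised to DMSO and 10 uM unlabeled VHL antagonist controls; IC50 by four-parameter fit.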
Background: In BRET a luciferase serves as donor, and the signal depends on an acceptor being close.

Test [2] deals with VHL co-expressed with Elongins B and C (Homo sapiens (Human), UniProt P40337). The experiment in a line: Surface Plasmon Resonance Assay. The conditions noted are these: SPR measured VHL affinity; geometric mean where more than one measurement. Format: binding. An outline of the steps:
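Avidin-tagged VHL co-expressed with Elongins B and C captured on a streptavidin chip. Compounds injected low-to-high concentration at 20 °C and 80 μL/min in 50 mM HEPES pH 7.2, 150 mM NaCl, 0.5 mM TCEP, 0.001% Tween 20, 0.2% PEG3350, 2% DMSO. Kinetic parameters from fits of binding curves.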
In general terms: Surface plasmon resonance follows binding to a sensor surface in real time, without labels.

Another test has as its target VHL Elongin B/C complex (Homo sapiens (Human), UniProt P40337). Kind of test: Fluorescence Polarization (FP) VHL Binding Assay. The conditions noted are these: VHL binding, FP assay; geometric mean where more than one measurement. An outline of the steps: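 FP tracer competition using His6-tagged human VHL (E55-D213) co-expressed with Elongin B and C in E. coli, final 2.64 nM, with TAMRA-labelled VHL ligand probe at 1.67 nM final. Buffer 50 mM Tris pH 8.0, 120 mM NaCl, 0.005% NP-40, 1% DMSO; 1 h at room temperature. Pre-assay compound/protein signal subtracted; IC50 from four-parameter fit.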
In general terms: Polarisation of emitted light reports the rotation of a fluorescent probe.

We go through 21 compounds from patent US11242344B2, “(4-hydroxypyrrolidin-2-yl)-heterocyclic compounds and methods of use thereof” (Genentech, Inc., priority 2017, dated 2022).

Some results are limits rather than exact numbers.

Sequence of NanoLuc VHL fusion protein (P40337 whole entry, looked up, the tested form may be a part): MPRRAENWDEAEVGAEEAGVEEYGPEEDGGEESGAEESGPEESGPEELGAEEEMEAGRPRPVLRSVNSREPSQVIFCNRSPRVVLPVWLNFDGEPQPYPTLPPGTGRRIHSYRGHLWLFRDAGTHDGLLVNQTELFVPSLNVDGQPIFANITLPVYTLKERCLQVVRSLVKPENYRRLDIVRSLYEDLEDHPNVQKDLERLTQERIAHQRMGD
Sequence of NanoLuc VHL fusion protein (Q15370 whole entry partner, looked up, the tested form may be a part): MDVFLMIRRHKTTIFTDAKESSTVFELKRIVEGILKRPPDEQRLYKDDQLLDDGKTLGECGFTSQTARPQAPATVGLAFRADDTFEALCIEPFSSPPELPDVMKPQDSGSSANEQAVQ
Sequence of NanoLuc VHL fusion protein (Q15369 whole entry partner, looked up, the tested form may be a part): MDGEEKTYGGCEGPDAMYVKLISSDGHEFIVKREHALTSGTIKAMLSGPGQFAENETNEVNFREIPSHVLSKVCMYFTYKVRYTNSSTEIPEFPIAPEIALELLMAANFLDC
Sequence of VHL Elongin B/C complex (P40337 whole entry, looked up): as the sequence (P40337 whole entry, looked up, the tested form may be a part) above
Sequence of VHL Elongin B/C complex (Q15370 whole entry partner, looked up): as the sequence (Q15370 whole entry partner, looked up, the tested form may be a part) above
Sequence of VHL Elongin B/C complex (Q15369 whole entry partner, looked up): as the sequence (Q15369 whole entry partner, looked up, the tested form may be a part) above
Sequence of VHL co-expressed with Elongins B and C (P40337 whole entry, looked up): as the sequence (P40337 whole entry, looked up, the tested form may be a part) above
Sequence of VHL co-expressed with Elongins B and C (Q15370 whole entry partner, looked up): as the sequence (Q15370 whole entry partner, looked up, the tested form may be a part) above
Sequence of VHL co-expressed with Elongins B and C (Q15369 whole entry partner, looked up): as the sequence (Q15369 whole entry partner, looked up, the tested form may be a part) above

Broadly, the IC50 is the concentration at which inhibition is half-maximal. A high value points to weaker potency. As a reminder, the Kd is the equilibrium constant for the complex coming apart. Consider `Cc1cc([C@H](C(=O)N2C[C@H](O)C[C@H]2C2=NOC(c3ccccc3)(c3ccccc3)N2)C(C)C)on1` [Example 132.2, (R)-1-((2S,4R)-2-(5,5-diphenyl-4,5-dihydro-1,2,4-oxadiazol-3-yl)-4-hydroxypyrrolidin-1-yl)-3-methyl-2-(3-methylisoxazol-5-yl)butan-1-one], for which the half-maximal inhibitory concentration (IC50) in test [1] was 39.4 µM; on VHL Elongin B/C complex, 45.7 µM. The Kd in test [2] stood at 12.6 µM.
For `Cc1ncsc1-c1ccc([C@]2(C)NC(C3C[C@@H](O)CN3C(=O)[C@@H]3CCCCN3S(C)(=O)=O)=NC2=O)cc1` (single isomer, unassigned) [Example 122.1], in that order: 100 µM, not below 400 µM and not below 150 µM.
For `Cc1cc([C@@H](C(=O)N2C[C@H](O)C[C@H]2C2=NOC(c3ccccc3)(c3ccccc3)N2)C(C)C)on1` [Example 132.1, (S)-1-((2S,4R)-2-(5,5-diphenyl-4,5-dihydro-1,2,4-oxadiazol-3-yl)-4-hydroxypyrrolidin-1-yl)-3-methyl-2-(3-methylisoxazol-5-yl)butan-1-one], the IC50 was 100 µM in test [1] and not below 400 µM on VHL Elongin B/C complex. For the same compound, the Kd in test [2] was not below 150 µM.
For `Cc1cc(C(C(=O)N2C[C@H](O)CC2C2=NC(=O)[C@](C)(c3ccc(-c4scnc4C)cc3)N2)C(C)C)sn1` (single isomer, unassigned) [Example 119.2], in that order: 100 µM, not below 400 µM and 150 µM.
In the same order, the values of `CCN1N=C([C@@H]2C[C@@H](O)CN2C(=O)C(c2cc(C)no2)C(C)C)NC1(C)C` (single isomer, unassigned) [Example 115.1] are 100 µM, not below 400 µM and 150 µM.
`Cc1cc([C@H](C(=O)N2C[C@H](O)C[C@H]2C2=NO[C@](C)(c3ccc(Br)cc3)N2)C(C)C)on1` (mixture of isomers) [Example 113.4, (2S)-1-((2S,4R)-2-(5-(4-Bromophenyl)-5-methyl-4,5-dihydro-1,2,4-oxadiazol-3-yl)-4-hydroxypyrrolidin-1-yl)-3-methyl-2-(3-methylisoxazol-5-yl)butan-1-one and (2R)-1-((2S,4R)-2-(5-(4-Bromophenyl)-5-methyl-4,5-dihydro-1,2,4-oxadiazol-3-yl)-4-hydroxypyrrolidin-1-yl)-3-methyl-2-(3-methylisoxazol-5-yl)butan-1-one]: the results for the concentration for half-maximal inhibition (IC50) (in test [1]; on VHL Elongin B/C complex) were 2.92 µM and 2.28 µM, respectively. Also, the Kd in test [2] stood at 3.17 µM.
For `Cc1cc(C(C(=O)N2C[C@H](O)CC2C2=NC(=O)[C@](C)(c3ccc(-c4scnc4C)cc3)N2)C(C)C)sn1` (single isomer, unassigned) [Example 119.4], in that order: 100 µM, not below 400 µM and 150 µM.
As to `CC(=O)N1CCCCC1C(=O)N1C[C@H](O)CC1C1=NC(=O)[C@](C)(c2ccc(-c3scnc3C)cc2)N1` (single isomer, unassigned) [Example 124.2], the half-inhibitory concentration (IC50) in test [1] was 54.6 µM; at VHL Elongin B/C complex, 32.9 µM. In test [2], the dissociation constant (Kd) stood at 10.1 µM.
For `CC/C(=C(\c1ccc(O)cc1)c1ccc(OCCN(C)C(=O)CCCOCCOc2cc(C(C(=O)N3C[C@H](O)CC3C3=NC(=O)[C@](C)(c4ccc(-c5scnc5C)cc4)N3)C(C)C)on2)cc1)c1ccccc1` (single isomer, unassigned) [Example 1003.2], in that order: not below 100 µM, not below 400 µM and 67.1 µM.
Turning to `Cc1cc([C@H](C(=O)N2C[C@H](O)C[C@H]2C2=NO[C@](c3ccccc3)(C(F)(F)F)N2)C(C)C)on1` (mixture of isomers) [Example 114.4, (2S)-1-((2S,4R)-4-Hydroxy-2-(5-phenyl-5-(trifluoromethyl)-4,5-dihydro-1,2,4-oxadiazol-3-yl)pyrrolidin-1-yl)-3-methyl-2-(3-methylisoxazol-5-yl)butan-1-one and (2R)-1-((2S,4R)-4-Hydroxy-2-(5-phenyl-5-(trifluoromethyl)-4,5-dihydro-1,2,4-oxadiazol-3-yl)pyrrolidin-1-yl)-3-methyl-2-(3-methylisoxazol-5-yl)butan-1-one], the results for the IC50 (in test [1]; at VHL Elongin B/C complex) were 59.9 µM and 58.3 µM, respectively. Further, binding in test [2] was characterised by a dissociation constant (Kd) of 5.86 µM.
For `Cc1cc([C@H](C(=O)N2C[C@H](O)C[C@H]2C2=NOC(C)(C)N2)C(C)C)on1` [Example 126.1, (R)-1-((2S,4R)-2-(5,5-dimethyl-4,5-dihydro-1,2,4-oxadiazol-3-yl)-4-hydroxypyrrolidin-1-yl)-3-methyl-2-(3-methylisoxazol-5-yl)butan-1-one], in that order: 45.4 µM, 31.4 µM and 12.8 µM.
In the same order, the values of `Cc1cc([C@H](C(=O)N2C[C@H](O)C[C@H]2C2=NOC(C)(c3ccc(-c4scnc4C)cc3)N2)C(C)C)on1` (single isomer, unassigned) [Example 129.4] are 0.239 µM, 0.202 µM and 0.0438 µM.
With `Cc1cc([C@H](C(=O)N2C[C@H](O)C[C@H]2C2=NOC(C)(c3ccc(-c4scnc4C)cc3)N2)C(C)C)on1` (single isomer, unassigned) [Example 129.3], the 50% inhibitory concentration (IC50) in test [1] was 0.304 µM; at VHL Elongin B/C complex, 0.418 µM. For the same compound, in test [2], the affinity, expressed as Kd, was 0.0293 µM.
For `Cc1cc([C@@H](C(=O)N2C[C@H](O)C[C@H]2C2=NOC3(CCc4ccccc43)N2)C(C)C)on1` (single isomer, unassigned) [Example 130.2], in that order: 100 µM, 362 µM and 121 µM.
`Cc1ncsc1-c1ccc([C@]2(C)NC(C3C[C@@H](O)CN3C(=O)C(c3cnn(C)c3)C(C)C)=NC2=O)cc1` (single isomer, unassigned) [Example 110.1]: the IC50 in test [1] stood at 28.1 µM; at VHL Elongin B/C complex it was 20.6 µM. Moreover, the Kd in test [2] was 7.42 µM.
In the same order, the values of `Cc1ncsc1-c1ccc([C@]2(C)NC(C3C[C@@H](O)CN3C(=O)[C@@H]3CCCN3S(C)(=O)=O)=NC2=O)cc1` (single isomer, unassigned) [Example 112.1] are 66.4 µM, 23.3 µM and 12.1 µM.
In the same order, the values of `Cc1cc([C@H](C(=O)N2C[C@H](O)C[C@H]2C2=NOC(C)(c3ccccc3)N2)C(C)C)on1` (single isomer, unassigned) [Example 128.4] are 24.5 µM, 17.3 µM and 7.5 µM.
In the same order, the values of `Cc1cc([C@@H](C(=O)N2C[C@H](O)C[C@H]2C2=NOC(C)(c3ccc(Br)cc3)N2)C(C)C)on1` (mixture of isomers) [Example 113.1, (2S)-1-((2S,4R)-2-(5-(4-Bromophenyl)-5-methyl-4,5-dihydro-1,2,4-oxadiazol-3-yl)-4-hydroxypyrrolidin-1-yl)-3-methyl-2-(3-methylisoxazol-5-yl)butan-1-one and (2R)-1-((2S,4R)-2-(5-(4-Bromophenyl)-5-methyl-4,5-dihydro-1,2,4-oxadiazol-3-yl)-4-hydroxypyrrolidin-1-yl)-3-methyl-2-(3-methylisoxazol-5-yl)butan-1-one] are 96.9 µM, 70.6 µM and 24.1 µM.
Regarding `Cc1cc([C@@H](C(=O)N2C[C@H](O)C[C@H]2C2=NOC(c3ccc(Br)cc3)(C(F)(F)F)N2)C(C)C)on1` (single isomer, unassigned) [Example 133.1], the concentration for half-maximal inhibition (IC50) in test [1] is 100 µM; at VHL Elongin B/C complex it was not below 400 µM. The same compound had a Kd in test [2] not below 150 µM.
For `Cc1ncsc1-c1ccc([C@]2(C)NC(C3C[C@@H](O)CN3C(=O)C(c3cc(O)no3)C(C)C)=NC2=O)cc1` (single isomer, unassigned) [Example 116.4], the concentration for half-maximal inhibition (IC50) in test [1] came to 100 µM; on VHL Elongin B/C complex, 35.4 µM. Further, binding in test [2] was put at a Kd of 5.3 µM.
For `Cc1ncsc1-c1ccc([C@]2(C)NC(C3C[C@@H](O)CN3C(=O)C(c3cnn(C)c3)C(C)C)=NC2=O)cc1` (single isomer, unassigned) [Example 110.4], in that order: not below 100 µM, not below 400 µM and 150 µM.
